According to patent EP4725957A1, “GROUP OF CYCLIC ALKALINE LIPOPEPTIDE COMPOUNDS, AND PREPARATION METHOD THEREFOR AND USE THEREOF” (Institute of Medicinal Biotechnology, Chinese Academy of …, priority 2023, dated 2024):
Values after ≈ are worked out from the molar mass of the structure shown. Where two headings read alike, the source gives them in different places. Bridge positions count the residues as written; N and C are the ends. Square brackets hold non-standard residues; d marks the D form. Peptide text beside a SMILES is read from it. * marks the point of attachment. Heptanoyl(6-Me) = CC(C)CCCCC(=O)*; Sulfomethyl = O=S(=O)(O)C*; dOrn = NCCC[C@@H](N)C(=O)O; Nonanoyl = CCCCCCCCC(=O)*; X1 = CC[C@H](C)CCCCC(=O)*; Octanoyl = CCCCCCCC(=O)*; Orn = NCCC[C@H](N)C(=O)O; dDap = NC[C@@H](N)C(=O)O; Dab = NCC[C@H](N)C(=O)O; Dap = NC[C@H](N)C(=O)O

What was measured:
[1] = system: Pseudomonas aeruginosa ATCC27853; assay: In vivo antibacterial (protection) test in infected mice; conditions: infected ICR mice, 7 days observation
Text: Pseudomonas aeruginosa ATCC27853 was selected for the determination of in vivo antibacterial activity.
One day before infection, the test bacteria were inoculated onto the corresponding nutrient agar plates and cultured overnight. On the day of infection, single colonies grown on the plates were picked and suspended in sterile normal saline, and the suspension was mixed thoroughly to obtain the original bacterial solution. The bacterial solution was then adjusted to the required concentration with 5% dried yeast powder and prepared freshly prior to use.
Healthy ICR mice were randomly divided into groups, with 5 mice per group, half male and half female. Bacterial solutions of different dilutions were aspirated and injected intraperitoneally into mice at a volume of 0.5 mL per 20 g of body weight. The mortality of mice was recorded within 7 days after infection. The minimum bacterial dose causing 100% mortality in mice was defined as the minimum lethal dose (MLD), which was used as the infection dose for the in vivo protection test.
Drug administration was performed via tail vein injection at 2 h, 8 h, 24 h, and 30 h after infection, with a total of 4 administrations, and the administration volume was 20 mL/kg. For the preparation of drug solutions, Compound 7, together with the control drugs polymyxin B and meropenem, were dissolved in normal saline to the required concentrations for tail vein injection, and all solutions were prepared freshly prior to use.
In the preliminary test, the drug dose concentrations that caused 100% mortality and no mortality in mice after infection with the tested bacteria were determined. Based on this dose range, 4-5 dose groups were established, with a dose ratio of 1:0.5 to 1:0.8 between adjacent groups.
Mice were randomly grouped according to body weight, with 8 mice per group (half male and half female). Each mouse was intraperitoneally infected with the test bacterial solution at a volume of 0.5 mL per 20 g of body weight, followed by tail vein injection at 2 h, 8 h, 24 h, and 30 h after infection. Mice in the blank control group were not infected with bacterial solution but were only given an equal volume of vehicle at an administration volume of 20 mL/kg. The mortality of mice was observed and recorded for 7 consecutive days.
The minimum lethal bacterial concentration of Pseudomonas aeruginosa ATCC27853 for intraperitoneal infection in mice was 4.2 × 10^2 CFU/mL, which was used as the infection dose in the formal test.
Mice in the infection control group were intraperitoneally inoculated with Pseudomonas aeruginosa ATCC27853 bacterial solution at the MLD concentration ([…]). Infection symptoms began to appear 3-4 hours after inoculation, and all 8 animals died within 48 hours (8/8), with a mortality rate of 100%.

[2] = system: Escherichia coli ATCC BAA-2523; type: cell-based
Procedure, shortened: (§1)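 Broth microdilution per CLSI in Mueller-Hinton broth. Compounds were tested at final concentrations of 64 to 0.03 mg/L (two-fold steps) against an inoculum of (2-4) × 10^5 CFU/mL, with incubation at 35-37°C for 16-20 h to give the MIC.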

[3] = system: Acinetobacter baumannii ABA19-1; type: cell-based
Procedure, shortened: as §1

[4] = system: Klebsiella pneumoniae KPN+19-15; type: cell-based
Procedure, shortened: as §1

[5] = system: Escherichia coli ATCC BAA-2340 (KPC); type: cell-based
Procedure, shortened: as §1

[6] = system: Pseudomonas aeruginosa PAE19-3; type: cell-based
Procedure, shortened: as §1

[7] = system: Acinetobacter baumannii NCTC 13304 (OXA-27); type: cell-based
Procedure, shortened: as §1

[8] = system: Klebsiella pneumoniae ATCC BAA-1705 (KPC); type: cell-based
Procedure, shortened: as §1

[9] = system: Pseudomonas aeruginosa ATCC 27853; type: cell-based
Procedure, shortened: as §1

[10] = Nephrotoxicity assay: in vitro cytotoxicity of HK-2 cells by CCK-8 assay; type: cell-based; conditions: human, HK-2 cells (human renal), 72 h incubation with drug-containing medium
Procedure, shortened: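 HK-2 human renal cells in RPMI-1640 with 10% FBS were exposed to compounds at final 12.5–500 µg/mL for 72 h, then CCK-8 for 3 h and OD450 read. Viability was normalised to drug-free wells; IC50 came from logarithmic regression over three repeats, with polymyxin B as positive drug.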

[11] = Acute toxicity test in healthy mice, single tail vein injection; type: in vivo; conditions: mouse, in vivo, iv; ICR mice, single tail vein injection, Bliss method
Description: (§2) Healthy ICR mice aged 5-6 weeks were selected, with 5-10 mice in each group, and administered via a single tail vein injection at an administration volume of 20 mL/kg. In the preliminary test, the drug dose concentrations that caused 100% mortality and no mortality in mice after a single intravenous injection were determined. Based on this dose range, 4-5 dose groups were set up, with a dose ratio of 1:0.5 to 1:0.8 between adjacent groups. The mortality of animals within 7 days after administration was recorded. According to the mortality rate of experimental animals in each group, the median lethal dose (LD50) of the test samples, i.e., the dose causing 50% mortality of the tested animals, was calculated by the Bliss method.

Healthy ICR mice = assay: as above; type: in vivo; conditions: within 7 days
Description: as §2

[12] = Acinetobacter baumannii ABA19-1
[13] = Klebsiella pneumoniae KPN 19-15
[14] = Escherichia coli ATCC BAA-2340 (KPC)
[15] = Acinetobacter baumannii NCTC 13304 (OXA-27)
[16] = Klebsiella pneumoniae ATCC BAA-1705 (KPC)
[17] = Pseudomonas aeruginosa ATCC27853

Compound	IC50 at 72 h [10] [µg/mL]	MIC ([2]; ATCC BAA-2523) [µg/mL]	MIC ([3]; ABA19-1) [µg/mL]	MIC ([4]; KPN+19-15) [µg/mL]	MIC ([5]; ATCC BAA-2340) [µg/mL]	MIC ([6]; PAE19-3) [µg/mL]	MIC ([7]; NCTC 13304) [µg/mL]	MIC ([8]; ATCC BAA-1705) [µg/mL]	MIC ([9]; ATCC 27853) [µg/mL]	further results
Polymyxin B [reference compound]										mortality rate ([1]; 0.7 mg/kg tail vein twice daily for 2 days): 100%; mortality rate ([1]; 1.0 mg/kg tail vein twice daily for 2 days): 100%; mortality rate ([1]; 1.4 mg/kg tail vein twice daily for 2 days): 87.5%; mortality rate ([1]; 2 mg/kg tail vein twice daily for 2 days): 62.5%; MIC ([2]; Escherichia coli ATCC BAA-2523): 0.03 µg/mL; MIC [3, 12]: 0.25 µg/mL; MIC [4, 13]: 0.125 µg/mL; MIC [5, 14]: 0.03 µg/mL; MIC ([6]; Pseudomonas aeruginosa PAE19-3): 0.25 µg/mL; MIC [7, 15]: 0.06 µg/mL; MIC [8, 16]: 0.125 µg/mL; MIC [9, 17]: 0.25 µg/mL
CC[C@H](C)CCCCC(=O)N[C@@H](CCN)C(=O)N[C@H](C(=O)N[C@H](CN)C(=O)N[C@H]1CCNC(=O)[C@H]([C@@H](C)O)NC(=O)[C@H](CCN)NC(=O)[C@H](CCN)NC(=O)[C@H]([C@@H](C)O)NC(=O)[C@H](Cc2ccccc2)NC(=O)[C@H](CCN)NC1=O)[C@@H](C)O [Compound 101, (S)-6-methyloctanoyl-Dab-Thr-D-Dap-ring(4-10)[Dab-Dab-Phe-Thr-Dab-Dab-Thr]] (X1-[Dab]T[dDap][Dab][Dab]FT[Dab][Dab]T; lactam 4-C)	> 500	>64	>64	>64	>64	>64	>64	>64	>64	
CCCCCCCCC(=O)N[C@@H](CCN)C(=O)N[C@H](C(=O)N[C@H](CN)C(=O)N[C@H]1CCNC(=O)[C@H]([C@@H](C)O)NC(=O)[C@H](CCN)NC(=O)[C@H](CCN)NC(=O)[C@H](CC(C)C)NC(=O)[C@@H](Cc2ccccc2)NC(=O)[C@H](CCN)NC1=O)[C@@H](C)O [Compound 35, Nonanoyl-Dab-Thr-D-Dap-ring(4-10)[Dab-Dab-D-Phe-Leu-Dab-Dab-Thr]] (Nonanoyl-[Dab]T[dDap][Dab][Dab][dF]L[Dab][Dab]T; lactam 4-C)	138 ± 8.3 (≈ 116 µM)	0.06 (≈ 0.0504 µM)	0.06 (≈ 0.0504 µM)	0.06 (≈ 0.0504 µM)	0.06 (≈ 0.0504 µM)	0.5 (≈ 0.42 µM)	0.06 (≈ 0.0504 µM)	0.06 (≈ 0.0504 µM)	0.06 (≈ 0.0504 µM)	
CCCCCCCC(=O)N[C@@H](CCN)C(=O)N[C@H](C(=O)N[C@H](CCCN)C(=O)N[C@H]1CCNC(=O)[C@H]([C@@H](C)O)NC(=O)[C@H](CCN)NC(=O)[C@H](CCN)NC(=O)[C@H](CC(C)C)NC(=O)[C@@H](Cc2ccccc2)NC(=O)[C@H](CCN)NC1=O)[C@@H](C)O [Compound 43, Octanoyl-Dab-Thr-D-Orn-ring(4-10)[Dab-Dab-D-Phe-Leu-Dab-Dab-Thr]] (Octanoyl-[Dab]T[dOrn][Dab][Dab][dF]L[Dab][Dab]T; lactam 4-C)	328 ± 8.6 (≈ 273 µM)	0.03 (≈ 0.0249 µM)	0.125 (≈ 0.104 µM)	0.125 (≈ 0.104 µM)	0.03 (≈ 0.0249 µM)	1 (≈ 0.831 µM)	0.06 (≈ 0.0499 µM)	0.06 (≈ 0.0499 µM)	0.25 (≈ 0.208 µM)	
CCCCCCCC(=O)N[C@@H](CCN)C(=O)N[C@H](C(=O)N[C@H](CO)C(=O)N[C@H]1CCNC(=O)[C@H]([C@@H](C)O)NC(=O)[C@H](CCCN)NC(=O)[C@H](CCN)NC(=O)[C@H]([C@@H](C)O)NC(=O)[C@@H](Cc2ccccc2)NC(=O)[C@H](CCN)NC1=O)[C@@H](C)O [Compound 88, Octanoyl-Dab-Thr-D-Ser-ring(4-10)[Dab-Dab-D-Phe-Thr-Dab-Orn-Thr]] (Octanoyl-[Dab]T[dS][Dab][Dab][dF]T[Dab][Orn]T; lactam 4-C)	> 500	0.03 (≈ 0.0255 µM)	0.06 (≈ 0.0509 µM)	0.5 (≈ 0.424 µM)	0.03 (≈ 0.0255 µM)	64 (≈ 54.3 µM)	≤0.03	0.25 (≈ 0.212 µM)	>64	
CC(C)CCCCC(=O)N[C@@H](CCN)C(=O)N[C@H](C(=O)N[C@@H](CN)C(=O)N[C@H]1CCNC(=O)[C@H]([C@@H](C)O)NC(=O)[C@H](CCN)NC(=O)[C@H](CCN)NC(=O)[C@H]([C@@H](C)O)NC(=O)[C@@H](Cc2ccccc2)NC(=O)[C@H](CCN)NC1=O)[C@@H](C)OCS(=O)(=O)O [Compound 113, 6-methylheptanoyl-Dab-Thr(CH2SO3H)-Dap-ring(4-10)[Dab-Dab-D-Phe-Thr-Dab-Dab-Thr]] ({Heptanoyl(6-Me)}-[Dab]T(Sulfomethyl)[Dap][Dab][Dab][dF]T[Dab][Dab]T; lactam 4-C)	> 500	0.03 (≈ 0.0239 µM)	0.06 (≈ 0.0477 µM)	0.125 (≈ 0.0994 µM)	0.03 (≈ 0.0239 µM)	0.25 (≈ 0.199 µM)	0.06 (≈ 0.0477 µM)	0.125 (≈ 0.0994 µM)	0.25 (≈ 0.199 µM)	
CC[C@H](C)CCCCC(=O)N[C@@H](CN)C(=O)N[C@H](C(=O)N[C@H](CO)C(=O)N[C@H]1CCNC(=O)[C@H]([C@@H](C)O)NC(=O)[C@H](CCN)NC(=O)[C@H](CCN)NC(=O)[C@H]([C@@H](C)O)NC(=O)[C@@H](Cc2ccccc2)NC(=O)[C@H](CCN)NC1=O)[C@@H](C)O [Compound 51, (S)-6-methyloctanoyl-Dap-Thr-D-Ser-ring(4-10)[Dab-Dab-D-Phe-Thr-Dab-Dab-Thr]] (X1-[Dap]T[dS][Dab][Dab][dF]T[Dab][Dab]T; lactam 4-C)	> 500	≤0.03	0.25 (≈ 0.215 µM)	0.5 (≈ 0.429 µM)	≤0.03	4 (≈ 3.44 µM)	0.25 (≈ 0.215 µM)	0.25 (≈ 0.215 µM)	64 (≈ 55 µM)	
CC(C)CCCCC(=O)N[C@@H](CCN)C(=O)N[C@H](C(=O)N[C@H](CN)C(=O)N[C@H]1CCNC(=O)[C@H]([C@@H](C)O)NC(=O)[C@H](CCN)NC(=O)[C@H](CCN)NC(=O)[C@H]([C@@H](C)O)NC(=O)[C@@H](Cc2ccccc2)NC(=O)[C@H](CCN)NC1=O)[C@@H](C)O [Compound 2, 6-methylheptanoyl-Dab-Thr-D-Dap-ring(4-10)[Dab-Dab-D-Phe-Thr-Dab-Dab-Thr]] ({Heptanoyl(6-Me)}-[Dab]T[dDap][Dab][Dab][dF]T[Dab][Dab]T; lactam 4-C)	> 500									MIC ([2]; Escherichia coli ATCC BAA-2523): ≤0.03 µg/mL; MIC [3, 12]: ≤0.03 µg/mL; MIC [4, 13]: ≤0.03 µg/mL; MIC [5, 14]: ≤0.03 µg/mL; MIC ([6]; Pseudomonas aeruginosa PAE19-3): 0.125 µg/mL (≈ 0.107 µM); MIC [7, 15]: ≤0.03 µg/mL; MIC [8, 16]: ≤0.03 µg/mL; MIC [9, 17]: ≤0.03 µg/mL; LD50 at 168 h [11]: 22 mg/kg; mortality rate (Healthy ICR mice; single tail vein injection 15.36 mg/kg): 0%; mortality rate (Healthy ICR mice; single tail vein injection 19.2 mg/kg): 25%; mortality rate (Healthy ICR mice; single tail vein injection 24 mg/kg): 62.5%; mortality rate (Healthy ICR mice; single tail vein injection 30 mg/kg): 100%
